Patent US20260256792A1, “TREATMENT OF CHRONIC SPONTANEOUS URTICARIA BY ADMINISTERING (R)-2-[3-[4-AMINO-3-(2-FLUORO-4-PHENOXY-PHENYL)PYRAZOLO[3,4-D]PYRIMIDIN-1-YL]PIPERIDINE-1-CARBONYL]-4-METHYL-4-[4-(OXETAN-3-YL)PIPERAZIN-1-YL]PENT-2-ENENITRILE” (priority 2023, published 2026)

System: moderate-to-severe chronic spontaneous urticaria (CSU)
Assay: Phase 2 CSU study: itch severity score over 7 days (ISS7)
Type: in vivo, human
Conditions: for Non-responder n (%) (ISS7 reduction of 5 points or more) / OR for rilzabrutinib vs. placebo (ISS7 reduction of 5 points or more) / RRD (%) for rilzabrutinib vs. placebo (ISS7 reduction of 5 points or more) / Responder n (%) (ISS7 reduction of 5 points or more) / Imputed non-responder n (%) (ISS7 reduction of 5 points or more): ITT population
Description: The study comprises a 12 week, randomized, double-blind, placebo-controlled, multi-center, dose-ranging efficacy and safety phase, followed by a 40 week open label extension (OLE) phase (see FIG. 1). The study consists of three phases and an optional OLE phase. […] Clinically, CSU is characterized by the spontaneous and recurrent appearance of pruritic hives. The proposed primary endpoints were the UAS7 at Week 12 in EU and EU reference countries and the ISS7 in the US. Regardless of where a participant was from, all assessments were the same. The UAS7 score is a composite score containing both the HSS7 and the ISS7. This allowed a global assessment of the two key components of urticaria: hives and itch. […] The UAS is a validated PRO measure. […] The daily UAS scores range from 0 to 6 point/day. […] Patients were to complete the UAS using the e-diary. […] The following secondary endpoints were to be analyzed using the same approach as for the primary endpoint: • Change from baseline in UAS7 at Week 4 • Change from baseline in UAS7 at Week 12 (for US and US reference countries) • Change from baseline in ISS7 at Week 12 (except US and US reference countries) • Change from baseline in HSS7 at Week 12

CC(C)(C=C(C#N)C(=O)N1CCC[C@@H](n2nc(-c3ccc(Oc4ccccc4)cc3F)c3c(N)ncnc32)C1)N1CCN(C2COC2)CC1 [rilzabrutinib, (R)-2-[3-[4-amino-3-(2-fluoro-4-phenoxy-phenyl)pyrazolo[3,4-d]pyrimidin-1-yl]piperidine-1-carbonyl]-4-methyl-4-[4-(oxetan-3-yl)piperazin-1-yl]pent-2-enenitrile]
Non-responder n (%) (ISS7 reduction of 5 points or more) (400 mg QPM, Week 4): 20 (52.6) n (%)
OR for rilzabrutinib vs. placebo (ISS7 reduction of 5 points or more) (400 mg QPM, Week 4): 1.076
RRD (%) for rilzabrutinib vs. placebo (ISS7 reduction of 5 points or more) (400 mg QPM, Week 4): 1.7%
Responder n (%) (ISS7 reduction of 5 points or more) (400 mg QPM, Week 4): 18 (47.4) n (%)
Non-responder n (%) (ISS7 reduction of 5 points or more) (400 mg QPM, Week 6): 20 (52.6) n (%)
OR for rilzabrutinib vs. placebo (ISS7 reduction of 5 points or more) (400 mg QPM, Week 6): 1.066
RRD (%) for rilzabrutinib vs. placebo (ISS7 reduction of 5 points or more) (400 mg QPM, Week 6): 1.5%
Responder n (%) (ISS7 reduction of 5 points or more) (400 mg QPM, Week 6): 18 (47.4) n (%)
Imputed non-responder n (%) (ISS7 reduction of 5 points or more) (400 mg QPM, Week 7): 6 (15.8) n (%)
Non-responder n (%) (ISS7 reduction of 5 points or more) (400 mg QPM, Week 7): 19 (50.0) n (%)
OR for rilzabrutinib vs. placebo (ISS7 reduction of 5 points or more) (400 mg QPM, Week 7): 1.138
RRD (%) for rilzabrutinib vs. placebo (ISS7 reduction of 5 points or more) (400 mg QPM, Week 7): 3.1%
Responder n (%) (ISS7 reduction of 5 points or more) (400 mg QPM, Week 7): 19 (50.0) n (%)
Imputed non-responder n (%) (ISS7 reduction of 5 points or more) (400 mg QPM, Week 8): 7 (18.4) n (%)
Non-responder n (%) (ISS7 reduction of 5 points or more) (400 mg QPM, Week 8): 20 (52.6) n (%)
OR for rilzabrutinib vs. placebo (ISS7 reduction of 5 points or more) (400 mg QPM, Week 8): 0.836
RRD (%) for rilzabrutinib vs. placebo (ISS7 reduction of 5 points or more) (400 mg QPM, Week 8): −4.5%
Responder n (%) (ISS7 reduction of 5 points or more) (400 mg QPM, Week 8): 18 (47.4) n (%)
Imputed non-responder n (%) (ISS7 reduction of 5 points or more) (400 mg QPM, Week 9): 6 (15.8) n (%)
Non-responder n (%) (ISS7 reduction of 5 points or more) (400 mg QPM, Week 9): 18 (47.4) n (%)
OR for rilzabrutinib vs. placebo (ISS7 reduction of 5 points or more) (400 mg QPM, Week 9): 1.294
RRD (%) for rilzabrutinib vs. placebo (ISS7 reduction of 5 points or more) (400 mg QPM, Week 9): 5.8%
Responder n (%) (ISS7 reduction of 5 points or more) (400 mg QPM, Week 9): 20 (52.6) n (%)
Imputed non-responder n (%) (ISS7 reduction of 5 points or more) (400 mg QPM, Week 10): 6 (15.8) n (%)
Non-responder n (%) (ISS7 reduction of 5 points or more) (400 mg QPM, Week 10): 14 (36.8) n (%)
OR for rilzabrutinib vs. placebo (ISS7 reduction of 5 points or more) (400 mg QPM, Week 10): 1.593
Responder n (%) (ISS7 reduction of 5 points or more) (400 mg QPM, Week 10): 24 (63.2) n (%)
Imputed non-responder n (%) (ISS7 reduction of 5 points or more) (400 mg QPM, Week 11): 7 (18.4) n (%)
Non-responder n (%) (ISS7 reduction of 5 points or more) (400 mg QPM, Week 11): 17 (44.7) n (%)
OR for rilzabrutinib vs. placebo (ISS7 reduction of 5 points or more) (400 mg QPM, Week 11): 0.938
RRD (%) for rilzabrutinib vs. placebo (ISS7 reduction of 5 points or more) (400 mg QPM, Week 11): −1.5%
Responder n (%) (ISS7 reduction of 5 points or more) (400 mg QPM, Week 11): 21 (55.3) n (%)
Imputed non-responder n (%) (ISS7 reduction of 5 points or more) (400 mg QPM, Week 12): 10 (26.3) n (%)
Non-responder n (%) (ISS7 reduction of 5 points or more) (400 mg QPM, Week 12): 21 (55.3) n (%)
OR for rilzabrutinib vs. placebo (ISS7 reduction of 5 points or more) (400 mg QPM, Week 12): 0.905
RRD (%) for rilzabrutinib vs. placebo (ISS7 reduction of 5 points or more) (400 mg QPM, Week 12): −2.6%
Responder n (%) (ISS7 reduction of 5 points or more) (400 mg QPM, Week 12): 17 (44.7) n (%)
Imputed non-responder n (%) (ISS7 reduction of 5 points or more) (400 mg TID, Week 2): 0 n (%)
Non-responder n (%) (ISS7 reduction of 5 points or more) (400 mg TID, Week 2): 13 (31.7) n (%)
OR for rilzabrutinib vs. placebo (ISS7 reduction of 5 points or more) (400 mg TID, Week 2): 4.772
RRD (%) for rilzabrutinib vs. placebo (ISS7 reduction of 5 points or more) (400 mg TID, Week 2): 35.9%
Responder n (%) (ISS7 reduction of 5 points or more) (400 mg TID, Week 2): 28 (68.3) n (%)
Imputed non-responder n (%) (ISS7 reduction of 5 points or more) (400 mg TID, Week 3): 0 n (%)
Non-responder n (%) (ISS7 reduction of 5 points or more) (400 mg TID, Week 3): 12 (29.3) n (%)
OR for rilzabrutinib vs. placebo (ISS7 reduction of 5 points or more) (400 mg TID, Week 3): 4.110
RRD (%) for rilzabrutinib vs. placebo (ISS7 reduction of 5 points or more) (400 mg TID, Week 3): 37.3%
Responder n (%) (ISS7 reduction of 5 points or more) (400 mg TID, Week 3): 29 (70.7) n (%)
Imputed non-responder n (%) (ISS7 reduction of 5 points or more) (400 mg TID, Week 4): 3 (7.3) n (%)
Non-responder n (%) (ISS7 reduction of 5 points or more) (400 mg TID, Week 4): 13 (31.7) n (%)
OR for rilzabrutinib vs. placebo (ISS7 reduction of 5 points or more) (400 mg TID, Week 4): 2.155
RRD (%) for rilzabrutinib vs. placebo (ISS7 reduction of 5 points or more) (400 mg TID, Week 4): 18.8%
Responder n (%) (ISS7 reduction of 5 points or more) (400 mg TID, Week 4): 28 (68.3) n (%)
Imputed non-responder n (%) (ISS7 reduction of 5 points or more) (400 mg TID, Week 5): 3 (7.3) n (%)
Non-responder n (%) (ISS7 reduction of 5 points or more) (400 mg TID, Week 5): 11 (26.8) n (%)
OR for rilzabrutinib vs. placebo (ISS7 reduction of 5 points or more) (400 mg TID, Week 5): 2.433
RRD (%) for rilzabrutinib vs. placebo (ISS7 reduction of 5 points or more) (400 mg TID, Week 5): 20.9%
Responder n (%) (ISS7 reduction of 5 points or more) (400 mg TID, Week 5): 30 (73.2) n (%)
Imputed non-responder n (%) (ISS7 reduction of 5 points or more) (400 mg TID, Week 6): 5 (12.2) n (%)
Non-responder n (%) (ISS7 reduction of 5 points or more) (400 mg TID, Week 6): 16 (39.0) n (%)
OR for rilzabrutinib vs. placebo (ISS7 reduction of 5 points or more) (400 mg TID, Week 6): 1.574
Responder n (%) (ISS7 reduction of 5 points or more) (400 mg TID, Week 6): 25 (61.0) n (%)
Imputed non-responder n (%) (ISS7 reduction of 5 points or more) (400 mg TID, Week 7): 6 (14.6) n (%)
Non-responder n (%) (ISS7 reduction of 5 points or more) (400 mg TID, Week 7): 14 (34.1) n (%)
OR for rilzabrutinib vs. placebo (ISS7 reduction of 5 points or more) (400 mg TID, Week 7): 2.038
RRD (%) for rilzabrutinib vs. placebo (ISS7 reduction of 5 points or more) (400 mg TID, Week 7): 16.8%
Responder n (%) (ISS7 reduction of 5 points or more) (400 mg TID, Week 7): 27 (65.9) n (%)
Imputed non-responder n (%) (ISS7 reduction of 5 points or more) (400 mg TID, Week 8): 8 (19.5) n (%)
Non-responder n (%) (ISS7 reduction of 5 points or more) (400 mg TID, Week 8): 13 (31.7) n (%)
OR for rilzabrutinib vs. placebo (ISS7 reduction of 5 points or more) (400 mg TID, Week 8): 1.839
RRD (%) for rilzabrutinib vs. placebo (ISS7 reduction of 5 points or more) (400 mg TID, Week 8): 14.6%
Responder n (%) (ISS7 reduction of 5 points or more) (400 mg TID, Week 8): 28 (68.3) n (%)
Imputed non-responder n (%) (ISS7 reduction of 5 points or more) (400 mg TID, Week 9): 7 (17.1) n (%)
Non-responder n (%) (ISS7 reduction of 5 points or more) (400 mg TID, Week 9): 12 (29.3) n (%)
OR for rilzabrutinib vs. placebo (ISS7 reduction of 5 points or more) (400 mg TID, Week 9): 2.730
RRD (%) for rilzabrutinib vs. placebo (ISS7 reduction of 5 points or more) (400 mg TID, Week 9): 22.5%
Responder n (%) (ISS7 reduction of 5 points or more) (400 mg TID, Week 9): 29 (70.7) n (%)
Imputed non-responder n (%) (ISS7 reduction of 5 points or more) (400 mg TID, Week 10): 7 (17.1) n (%)
Non-responder n (%) (ISS7 reduction of 5 points or more) (400 mg TID, Week 10): 14 (34.1) n (%)
OR for rilzabrutinib vs. placebo (ISS7 reduction of 5 points or more) (400 mg TID, Week 10): 1.669
Responder n (%) (ISS7 reduction of 5 points or more) (400 mg TID, Week 10): 27 (65.9) n (%)
Imputed non-responder n (%) (ISS7 reduction of 5 points or more) (400 mg TID, Week 11): 6 (14.6) n (%)
Non-responder n (%) (ISS7 reduction of 5 points or more) (400 mg TID, Week 11): 12 (29.3) n (%)
OR for rilzabrutinib vs. placebo (ISS7 reduction of 5 points or more) (400 mg TID, Week 11): 1.699
Responder n (%) (ISS7 reduction of 5 points or more) (400 mg TID, Week 11): 29 (70.7) n (%)
ISS7 % Change difference for rilzabrutinib vs. placebo LS Mean (95% CI) (ITT, 400 mg BID, Week 1): −23.55%
ISS7 % Change from baseline LS Mean (SE) (ITT, 400 mg BID, Week 1): −34.02 (5.28) %
ISS7 Change difference for rilzabrutinib vs. placebo LS Mean (95% CI) (ITT, 400 mg BID, Week 1): −3.23
ISS7 Change from baseline LS Mean (SE) (ITT, 400 mg BID, Week 1): −5.23 (0.78)
ISS7 Post-baseline Mean (SD) (ITT, 400 mg BID, Week 1): 10.65 (5.86)
ISS7 % Change difference for rilzabrutinib vs. placebo LS Mean (95% CI) (ITT, 400 mg BID, Week 2): −16.63%
ISS7 % Change from baseline LS Mean (SE) (ITT, 400 mg BID, Week 2): −36.11 (5.26) %
